Results from patent publication US10493060B2, “Spirocyclic compounds” (ZENO ROYALTIES & MILESTONES, LLC, priority 2015, dated 2019).

Assays:
Activated ERK2 = Activated ERK2 (Homo sapiens (Human), UniProt P28482); assay: Active ERK2 kinase assay (Mobility Shift Assay); format: biochemical
Procedure: (§1) Activated ERK1 and ERK2 activity was determined in a Mobility Shift Assay (MSA) format as follows: Compound and kinase solution were prepared with assay buffer (20 mM HEPES, 0.01% Triton X-100, 2 mM DTT, pH7.5) and mixed and incubated in for 30 mins at rt. ERK1 & ERK2 were then activated by the addition of Fl-Substrate, ATP and metal solution and incubated for 1 h at rt. After 1 h, the reaction was terminated by the addition of […] of Termination Buffer (QuickScout Screening Assist MSA; Carna Biosciences) to the well. The reaction mixture was applied to LabChip™ system (PerkinElmer), and the product and substrate peptide peaks were separated, analyzed and quantitated. The kinase reaction is evaluated by the product ratio calculated from peak heights of product (P) and substrate (S) peptides (P/(P+S)).

Activated ERK1 = Activated ERK1 (Homo sapiens (Human), UniProt P27361); assay: Active ERK1 kinase assay (Mobility Shift Assay); format: biochemical
Procedure: as §1

Activated ERK2, sequence (P28482 whole entry): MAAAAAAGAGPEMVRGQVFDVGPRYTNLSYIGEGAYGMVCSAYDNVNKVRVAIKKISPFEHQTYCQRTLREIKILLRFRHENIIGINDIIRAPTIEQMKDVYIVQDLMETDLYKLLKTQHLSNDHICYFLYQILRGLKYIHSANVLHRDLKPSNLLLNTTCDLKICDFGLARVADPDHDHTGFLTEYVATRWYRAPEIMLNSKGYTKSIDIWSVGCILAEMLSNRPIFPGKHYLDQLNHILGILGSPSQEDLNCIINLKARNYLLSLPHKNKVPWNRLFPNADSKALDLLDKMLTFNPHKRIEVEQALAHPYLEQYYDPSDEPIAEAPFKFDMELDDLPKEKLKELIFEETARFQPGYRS
Activated ERK1, sequence (P27361 whole entry): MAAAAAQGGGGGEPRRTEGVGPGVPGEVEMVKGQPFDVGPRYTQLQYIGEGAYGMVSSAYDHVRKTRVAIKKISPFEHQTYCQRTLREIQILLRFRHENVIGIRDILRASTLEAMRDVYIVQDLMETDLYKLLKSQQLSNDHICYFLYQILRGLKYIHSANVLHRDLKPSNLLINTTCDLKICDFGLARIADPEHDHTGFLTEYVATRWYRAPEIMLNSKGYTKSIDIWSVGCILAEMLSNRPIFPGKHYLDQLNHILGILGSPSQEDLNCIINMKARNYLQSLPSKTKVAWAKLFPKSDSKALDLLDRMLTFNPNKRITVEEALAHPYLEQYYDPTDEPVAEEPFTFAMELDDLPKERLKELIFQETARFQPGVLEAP

IC50 (Activated ERK2) | IC50 (Activated ERK1) | SMILES
≤ 0.05 µM |  | Cn1cnc(-c2ccc(C3=CCN(C(=O)CN4CC[C@]5(CCN(c6ccc7[nH]nc(-c8ccc(S(C)(=O)=O)cc8)c7c6)C5=O)C4)CC3)cc2)n1 [Example 58, (S)-7-(2-(4-(4-(1-Methyl-1H-1,2,4-triazol-3-yl)phenyl)-3,6-dihydropyridin-1(2H)-yl)-2-oxoethyl)-2-(3-(4-(methylsulfonyl)phenyl)-1H-indazol-5-yl)-2,7-diazaspiro[4.4]nonan-1-one]
≤ 0.05 µM |  | Cc1noc(-c2ccc(C3=CCN(C(=O)CN4CC[C@]5(CCN(c6ccc7[nH]nc(-c8ccc(OC(C)C)nc8)c7c6)C5=O)C4)CC3)cc2)n1 [Example 54, (S)-2-(3-(6-Isopropoxypyridin-3-yl)-1H-indazol-5-yl)-7-(2-(4-(4-(3-methyl-1,2,4-oxadiazol-5-yl)phenyl)-3,6-dihydropyridin-1(2H)-yl)-2-oxoethyl)-2,7-diazaspiro[4.4]nonan-1-one]
≤ 0.05 µM |  | CC(C)Oc1ccc(-c2n[nH]c3ccc(N4CC[C@]5(CCN(CC(=O)N6CC=C(c7ccc(-c8ncn(CCO)n8)cc7)CC6)C5)C4=O)cc23)cn1 [Example 47, (S)-7-(2-(4-(4-(1-(2-Hydroxyethyl)-1H-1,2,4-triazol-3-yl)phenyl)-3,6-dihydropyridin-1(2H)-yl)-2-oxoethyl)-2-(3-(6-isopropoxypyridin-3-yl)-1H-indazol-5-yl)-2,7-diazaspiro[4.4]nonan-1-one]
≤ 0.05 µM |  | COCCn1cnc(-c2ccc(C3=CCN(C(=O)CN4CC[C@]5(CCN(c6ccc7[nH]nc(-c8ccc(OC(C)C)nc8)c7c6)C5=O)C4)CC3)cc2)n1 [Example 49, (S)-2-(3-(6-Isopropoxypyridin-3-yl)-1H-indazol-5-yl)-7-(2-(4-(4-(1-(2-methoxyethyl)-1H-1,2,4-triazol-3-yl)phenyl)-3,6-dihydropyridin-1(2H)-yl)-2-oxoethyl)-2,7-diazaspiro[4.4]nonan-1-one]
≤ 0.05 µM |  | Cn1cc(-c2n[nH]c3ccc(N4CC[C@]5(CCN(CC(=O)N6CC=C(c7ccc(-c8ncn(C)n8)cc7)CC6)C5)C4=O)cc23)cn1 [Example 48, (S)-7-(2-(4-(4-(1-Methyl-1H-1,2,4-triazol-3-yl)phenyl)-3,6-dihydropyridin-1 (2H)-yl)-2-oxoethyl)-2-(3-(1-methyl-1H-pyrazol-4-yl)-1H-indazol-5-yl)-2,7-diazaspiro[4.4]nonan-1-one]
≤ 0.05 µM |  | CCn1cnc(-c2ccc(C3=CCN(C(=O)CN4CC[C@]5(CCN(c6ccc7[nH]nc(-c8ccc(OC(C)C)nc8)c7c6)C5=O)C4)CC3)cc2)n1 [Example 46, (S)-7-(2-(4-(4-(1-Ethyl-1H-1,2,4-triazol-3-yl)phenyl)-3,6-dihydropyridin-1(2H)-yl)-2-oxoethyl)-2-(3-(6-isopropoxypyridin-3-yl)-1H-indazol-5-yl)-2,7-diazaspiro[4.4]nonan-1-one]
≤ 0.05 µM | ≤ 0.05 µM | CC(C)Oc1ccc(-c2n[nH]c3ccc(N4CC[C@]5(CCN(CC(=O)N6CC=C(c7ccc(-n8ccnn8)cc7)CC6)C5)C4=O)cc23)cn1 [Example 14, (S)-7-(2-(4-(4-(1H-1,2,3-Triazol-1-yl)phenyl)-3,6-dihydropyridin-1(2H)-yl)-2-oxoethyl)-2-(3-(6-isopropoxypyridin-3-yl)-1H-indazol-5-yl)-2,7-diazaspiro[4.4]nonan-1-one]
≤ 0.05 µM | ≤ 0.05 µM | CC(C)Oc1ccc(-c2n[nH]c3ccc(N4CCC5(CCN(CC(=O)N6CCN(c7ccc(-c8ncn(C)n8)cc7)CC6)C5)C4=O)cc23)cn1 (stereo not drawn) [Example 3, 2-(3-(6-Isopropoxypyridin-3-yl)-1H-indazol-5-yl)-7-(2-(4-(4-(1-methyl-1H-1,2,4-triazol-3-yl)phenyl)piperazin-1-yl)-2-oxoethyl)-2,7-diazaspiro[4.4]nonan-1-one]
≤ 0.05 µM | ≤ 0.05 µM | CC(C)Oc1ccc(-c2n[nH]c3ccc(N4CCC5(CCN(CC(=O)N6CC=C(c7ccc(-c8ncn(C)n8)cc7)CC6)C5)C4=O)cc23)cn1 (stereo not drawn) [Example 1, 2-(3-(6-Isopropoxypyridin-3-yl)-1H-indazol-5-yl)-7-(2-(4-(4-(1-methyl-1H-1,2,4-triazol-3-yl)phenyl)-3,6-dihydropyridin-1(2H)-yl)-2-oxoethyl)-2,7-diazaspiro[4.4]nonan-1-one]
0.05 to 0.25 µM |  | Cn1cnc(-c2ccc(N3CCN(C(=O)CN4CC[C@]5(CCN(c6ccc7[nH]nc(C8CC8)c7c6)C5=O)C4)CC3)cc2)n1 [Example 44, (S)-2-(3-Cyclopropyl-1H-indazol-5-yl)-7-(2-(4-(4-(1-methyl-1H-1,2,4-triazol-3-yl)phenyl)piperazin-1-yl)-2-oxoethyl)-2,7-diazaspiro[4.4]nonan-1-one]
≥ 0.25 µM | ≥ 0.25 µM | CC(C)Oc1ccc(-c2n[nH]c3ccc(N4CCC5(CCN(CC(=O)N6CC=C(c7ccc(-c8ncn(C)n8)cc7)CC6)C5)C4)cc23)cn1 (stereo not drawn) [Example 4, 2-(7-(3-(6-Isopropoxypyridin-3-yl)-1H-indazol-5-yl)-2,7-diazaspiro[4.4]nonan-2-yl)-1-(4-(4-(1-methyl-1H-1,2,4-triazol-3-yl)phenyl)-3,6-dihydropyridin-1(2H)-yl)ethan-1-one]
0.05 to 0.25 µM | 0.05 to 0.25 µM | CC(C)Oc1ccc(-c2n[nH]c3ccc(N4CCC5(CN(CC(=O)N6CC=C(c7ccc(-c8ncn(C)n8)cc7)CC6)C5)C4=O)cc23)cn1 [Example 13, 6-(3-(6-Isopropoxypyridin-3-yl)-1H-indazol-5-yl)-2-(2-(4-(4-(1-methyl-1H-1,2,4-triazol-3-yl)phenyl)-3,6-dihydropyridin-1(2H)-yl)-2-oxoethyl)-2,6-diazaspiro[3.4]octan-5-one]
≤ 0.05 µM | ≤ 0.05 µM | Cc1cc(-c2n[nH]c3ccc(N4CCC5(CCN(CC(=O)N6CC=C(c7ccc(-c8ncn(C)n8)cc7)CC6)C5)C4=O)cc23)ccn1 (stereo not drawn) [Example 6, 7-(2-(4-(4-(1-Methyl-1H-1,2,4-triazol-3-yl)phenyl)-3,6-dihydropyridin-1(2H)-yl)-2-oxoethyl)-2-(3-(2-methylpyridin-4-yl)-1H-indazol-5-yl)-2,7-diazaspiro[4.4]nonan-1-one]
0.05 to 0.25 µM |  | CCNc1n[nH]c2ccc(N3CC[C@]4(CCN(CC(=O)N5CC=C(c6ccc(-c7ncn(C)n7)cc6)CC5)C4)C3=O)cc12 [Example 53, (S)-2-(3-(Ethylamino)-1H-indazol-5-yl)-7-(2-(4-(4-(1-methyl-1H-1,2,4-triazol-3-yl)phenyl)-3,6-dihydropyridin-1(2H)-yl)-2-oxoethyl)-2,7-diazaspiro[4.4]nonan-1-one]
≤ 0.05 µM |  | CC(C)Oc1ccc(-c2n[nH]c3ccc(N4CC[C@]5(CCN(CC(=O)N6CC=C(c7ccc(-c8ncn(C)n8)cc7F)CC6)C5)C4=O)cc23)cn1 [Example 55, (S)-7-(2-(4-(2-Fluoro-4-(1-methyl-1H-1,2,4-triazol-3-yl)phenyl)-3,6-dihydropyridin-1(2H)-yl)-2-oxoethyl)-2-(3-(6-isopropoxypyridin-3-yl)-1H-indazol-5-yl)-2,7-diazaspiro[4.4]nonan-1-one]
≤ 0.05 µM |  | Cn1cnc(-c2ccc(C3=CCN(C(=O)CN4CC[C@]5(CCN(c6ccc7[nH]nc(C#N)c7c6)C5=O)C4)CC3)cc2)n1 [Example 51, (S)-5-(7-(2-(4-(4-(1-Methyl-1H-1,2,4-triazol-3-yl)phenyl)-3,6-dihydropyridin-1(2H)-yl)-2-oxoethyl)-1-oxo-2,7-diazaspiro[4.4]nonan-2-yl)-1H-indazole-3-carbonitrile]
≤ 0.05 µM |  | Cc1ccc(-c2n[nH]c3ccc(N4CC[C@]5(CCN(CC(=O)N6CC=C(c7ccc(-c8ncn(C)n8)cc7)CC6)C5)C4=O)cc23)cn1 [Example 57, (S)-7-(2-(4-(4-(1-Methyl-1H-1,2,4-triazol-3-yl)phenyl)-3,6-dihydropyridin-1(2H)-yl)-2-oxoethyl)-2-(3-(6-methylpyridin-3-yl)-1H-indazol-5-yl)-2,7-diazaspiro[4.4]nonan-1-one]
≤ 0.05 µM |  | Cn1cnc(-c2ccc(C3=CCN(C(=O)CN4CC[C@]5(CCN(c6ccc7[nH]nc(C(F)F)c7c6)C5=O)C4)CC3)cc2)n1 [Example 52, (S)-2-(3-(Difluoromethyl)-1H-indazol-5-yl)-7-(2-(4-(4-(1-methyl-1H-1,2,4-triazol-3-yl)phenyl)-3,6-dihydropyridin-1(2H)-yl)-2-oxoethyl)-2,7-diazaspiro[4.4]nonan-1-one]
≤ 0.05 µM |  | CC(C)Oc1ccc(-c2n[nH]c3ccc(N4CC[C@]5(CCN(CC(=O)N6CC=C(c7ccc(-c8ncn(C)n8)c(F)c7)CC6)C5)C4=O)cc23)cn1 [Example 56, (S)-7-(2-(4-(3-Fluoro-4-(1-methyl-1H-1,2,4-triazol-3-yl)phenyl)-3,6-dihydropyridin-1(2H)-yl)-2-oxoethyl)-2-(3-(6-isopropoxypyridin-3-yl)-1H-indazol-5-yl)-2,7-diazaspiro[4.4]nonan-1-one]
≤ 0.05 µM |  | Cn1cnc(-c2ccc(C3=CCN(C(=O)CN4CC[C@]5(CCN(c6ccc7[nH]nc(C8CC8)c7c6)C5=O)C4)CC3)cc2)n1 [Example 45, (S)-2-(3-Cyclopropyl-1H-indazol-5-yl)-7-(2-(4-(4-(1-methyl-1H-1,2,4-triazol-3-yl)phenyl)-3,6-dihydropyridin-1(2H)-yl)-2-oxoethyl)-2,7-diazaspiro[4.4]nonan-1-one]
≤ 0.05 µM |  | CC(C)Oc1ccc(-c2n[nH]c3ccc(N4CC[C@]5(CCN(CC(=O)N6CC=C(c7ccc(-c8ncn(C9CC9)n8)cc7)CC6)C5)C4=O)cc23)cn1 [Example 50, (S)-7-(2-(4-(4-(1-Cyclopropyl-1H-1,2,4-triazol-3-yl)phenyl)-3,6-dihydropyridin-1(2H)-yl)-2-oxoethyl)-2-(3-(6-isopropoxypyridin-3-yl)-1H-indazol-5-yl)-2,7-diazaspiro[4.4]nonan-1-one]
